Assay results as given in patent publication US5610139A, “Antimicrobial compositions and pharmaceutical preparations thereof” (Seikagaku Corporation, priority 1992, dated 1997).
Values after ≈ are worked out from the molar mass of the structure shown. Where two headings read alike, the source gives them in different places. Where a SMILES comes first, the peptide text is derived from it. Bridges are numbered along the chain shown (N, C = ends).

Experiments:
[1] = system: 55 strains of clinically isolated MRSA; assay type: cell-based, Staphylococcus aureus
From the text: The MRSAs used for the experiments shown below were isolated as follows. Specimens of urine, sputa and pus of hospitalized patients in Nagoya University, School of Medicine Hospital were smeared and cultured on blood agar medium. Staphylococcus aureus was isolated and identified from the grown colonies. Their sensitivity were examined using BBL test disks containing one μg of oxacillin (BBL Microbiology System Co., Ltd.) and strains showing inhibitory zone of 10 mm or less were classified as MRSA. A total of 55 strains of MRSA Nos. 170, 199, 3-50, 3-53 and so forth were isolated. Their sensitivity were confirmed by an agar plate dilution method using Mueller-Hinton agar medium of BBL (BBL Microbiology System Co., Ltd.) containing 100, 50, 25, 12.5, 6.3, 3.2, 1.6 or 0.8 μg/ml of methicillin (Banyu Pharmaceutical Co., Ltd.).
MRSAs obtained by the preceding method were cultured in L medium (1% bactotrypton, 0.5% yeast extract, 0.5% NaCl, pH 7.2) overnight and diluted 40-fold with a phosphate buffered saline solution (PBS).
Separately, tachyplesin I was diluted by 2-fold method using M9 medium (a synthetic medium added with 1% casamino acid) or T broth (0.5% bactotrypton and 0.5% NaCl) to give concentrations of 200-0.4 μg/ml and poured in a 96 well microplate at 100 μl/well each.
The 40-fold diluted bacterial solution was further diluted 10-fold with the M9 medium or T broth and poured 100 μl each to the above wells and the combined solution was mixed to give final concentration of 100-0.2 μg/ml of tachyplesin I. The bacterial concentration was made approximately 10^6 cfu/well (cfu=colony forming unit).
The resultant mixed solutions of bacterial and tachyplesin I solutions were cultured overnight (18 hrs.) at 37° C. The growth of bacteria was determined by the turbidity of the medium and the minimum concentration required to inhibit their growth was used as the minimum inhibitory concentration (MIC).
MICs of various antimicrobial peptides derived from horseshoe crab against 55 strains of clinically isolated MRSA were determined by a similar method to that shown above.

MRSA No. 3-50 strain = assay type: cell-based, Staphylococcus aureus; conditions: for MIC, single administration of the peptide: MRSA; for growth: MRSA No. 3-50; as to growth: key: + shows growth; - shows no growth
From the text: Synergistic antimicrobial activities by the combinations of tachyplesin I and β-lactam antibiotics or chloramphenicol antibiotics against above mentioned clinically isolated MRSAs were examined and the results against MRSA No. 3-50 strain are shown in the following Tables.

[2] = system: artificial vesicles using inner membrane of E. coli; assay: Action on membrane potential in artificial vesicles in vitro; assay type: biochemical
From the text: The antimicrobial mechanisms of the peptides such as tachyplesins against MRSAs are supposed to be similar to those of against Escherichia coil and Salmonella spp. There is an energy producing mechanism by oxidative phosphorylation in cytoplasmic membrane of bacteria, which couples with membrane potential. The action mechanism against E. coli was modeled in artificial vesicles using inner membrane of E. coli and the action of tachyplesin I was investigated in vitro.

[3] = against 55 strains of clinically isolated MRSA
[4] = antibiotic 10 μg/ml alone (TAC-I 0 μg/ml)
[5] = antibiotic 20 μg/ml alone (TAC-I 0 μg/ml)

Compound	MIC [1, 3]	MIC, single administration of the peptide (MRSA No. 3-50 strain)	growth (MRSA No. 3-50 strain; [4])	growth (MRSA No. 3-50 strain; [5])	further results
CC(C)[C@@H]1NC(=O)[C@H](CCCNC(=N)N)NC(=O)[C@H](Cc2ccccc2)NC(=O)[C@@H](NC(=O)[C@H](Cc2c[nH]c3ccccc23)NC(=O)[C@H](CCCNC(=N)N)NC(=O)[C@@H](N)CCCNC(=N)N)CSSC[C@@H](C(=O)N[C@@H](CCCNC(=N)N)C(N)=O)NC(=O)[C@H](CCCCN)NC(=O)[C@H](CCCNC(=N)N)NC(=O)[C@H](Cc2ccc(O)cc2)NC(=O)[C@@H]2CSSC[C@H](NC1=O)C(=O)N[C@@H](Cc1ccc(O)cc1)C(=O)N[C@@H](CCCCN)C(=O)NCC(=O)N[C@@H](Cc1ccccc1)C(=O)N2 [Polyphemusin II] (H-RRWCFRVCYKGFCYRKCR-NH2; disulfide 4-17, 8-13)	6.3 µg/mL (≈ 2.6 µM)	6.3 µg/mL			
Cc1nnc(SCC2=C(C(=O)O)N3C(=O)[C@@H](NC(=O)Cn4cnnn4)[C@H]3SC2)s1 [CEZ, Cefazolin]			+	+	growth (MRSA No. 3-50 strain; antibiotic 40 μg/ml alone (TAC-I 0 μg/ml)): -
CC1(C)S[C@@H]2[C@H](NC(=O)[C@H](N)c3ccccc3)C(=O)N2[C@H]1C(=O)O [ABPC, Ampicillin]			+	+	
O=C(N[C@H](CO)[C@H](O)c1ccc([N+](=O)[O-])cc1)C(Cl)Cl [CP, Chloramphenicol]			+	+	growth (MRSA No. 3-50 strain; antibiotic 5 μg/ml alone (TAC-I 0 μg/ml)): +
CC[C@H](C)[C@@H]1NC(=O)CNC(=O)[C@H](CCCNC(=N)N)NC(=O)[C@H](Cc2ccc(O)cc2)NC(=O)[C@@H]2CSSC[C@H](NC1=O)C(=O)N[C@@H](Cc1ccc(O)cc1)C(=O)N[C@@H](CCCNC(=N)N)C(=O)N[C@@H](CCCCN)C(=O)N[C@H](C(=O)N[C@@H](CCCNC(=N)N)C(N)=O)CSSC[C@H](NC(=O)[C@H](Cc1c[nH]c3ccccc13)NC(=O)[C@@H](N)CCCNC(=N)N)C(=O)N[C@@H](Cc1ccccc1)C(=O)N[C@@H](CCCNC(=N)N)C(=O)N[C@@H](C(C)C)C(=O)N2 [Tachyplesin II] (H-RWCFRVCYRGICYRKCR-NH2; disulfide 3-16, 7-12; N-terminus and C-terminus assumed)	3.2 µg/mL (≈ 1.41 µM)				
CC[C@H](C)[C@@H]1NC(=O)CNC(=O)[C@H](CCCNC(=N)N)NC(=O)[C@H](Cc2ccc(O)cc2)NC(=O)[C@@H]2CSSC[C@H](NC1=O)C(=O)N[C@@H](Cc1ccc(O)cc1)C(=O)N[C@@H](CCCNC(=N)N)C(=O)N[C@@H](CCCNC(=N)N)C(=O)N[C@H](C(=O)N[C@@H](CCCNC(=N)N)C(N)=O)CSSC[C@H](NC(=O)[C@H](Cc1c[nH]c3ccccc13)NC(=O)[C@@H](N)CCCCN)C(=O)N[C@@H](Cc1ccccc1)C(=O)N[C@@H](CCCNC(=N)N)C(=O)N[C@@H](C(C)C)C(=O)N2 [Tachyplesin I] (H-KWCFRVCYRGICYRRCR-NH2; disulfide 3-16, 7-12; N-terminus and C-terminus assumed)		3.2 µg/mL			MIC ([1]; 47 strains (85% of total 55 MRSA strains)): 6.3 µg/mL (≈ 2.78 µM); MIC ([1]; one strain (2% of total 55 MRSA strains)): 12.5 µg/mL (≈ 5.52 µM); MIC ([1]; seven strains (13% of total 55 MRSA strains)): 3.2 µg/mL (≈ 1.41 µM); effect on membrane potential generated in the cytoplasmic membrane [2]: depolarized the membrane potential; growth (MRSA No. 3-50 strain; TAC-I 0.4 μg/ml alone (antibiotic 0 μg/ml)): +; growth (MRSA No. 3-50 strain; TAC-I 0.8 μg/ml alone (antibiotic 0 μg/ml)): +; growth (MRSA No. 3-50 strain; TAC-I 1.6 μg/ml alone (antibiotic 0 μg/ml)): +
